From PubChem BioAssay AID316 (DTP/NCI, 2004)
Values joined by “and” are separate entries in the source; they are usually repeats but may differ in a detail not shown here. Equal entries are not always repeated. Inconclusive results and toxic doses are left out.

System: P1534 leukemia ip, CD2F1 mice, survival T/C
Assay: NCI In Vivo Anticancer Drug Screen. Data for tumor model P1534 Leukemia (intraperitoneal) in CD2F1 (CDF1) mice
Details: higher = longer survival
Description: The antitumor activity of compounds was measured in mice bearing transplantable tumors. Survival or tumor size were measured and the results are expressed as the measurement made in the treated group (T) divided by the measurement made in the vehicle treated control group (C). The tumor model used in this assay is P1534 Leukemia (intraperitoneal) in CD2F1 (CDF1) mice

[1] = endpoint: mean survival time, dose: 7.5 mg/kg/injection, schedule: Q01DX010 (ip), vehicle: saline
[2] = endpoint: mean survival time, dose: 25.0 mg/kg/injection, schedule: Q01DX010 (ip), vehicle: saline
[3] = endpoint: mean survival time, dose: 50.0 mg/kg/injection, schedule: Q01DX010 (ip), vehicle: saline
[4] = endpoint: mean survival time, dose: 100.0 mg/kg/injection, schedule: Q01DX010 (ip), vehicle: saline
[5] = endpoint: mean survival time, dose: 200.0 mg/kg/injection, schedule: Q01DX010 (ip), vehicle: saline
[6] = endpoint: mean survival time, dose: 12.5 mg/kg/injection, schedule: Q01DX010 (ip), vehicle: saline

Which results are given for `CC1CCC(NC(=O)N(CCCl)N=O)CC1` (configuration not stated)?
T/C (endpoint: median survival time, dose: 1.0 mg/kg/injection, schedule: Q01DX005 (ip), vehicle: other): 111 % of control; T/C (endpoint: median survival time, dose: 4.0 mg/kg/injection, schedule: Q01DX005 (ip), vehicle: other): 255 % of control; T/C (endpoint: median survival time, dose: 8.0 mg/kg/injection, schedule: Q01DX005 (ip), vehicle: other): 255 % of control; T/C (endpoint: median survival time, dose: 16.0 mg/kg/injection, schedule: Q01DX005 (ip), vehicle: other): 115 % of control

Which T/C [1] does the source give for `Nc1nncs1` here?
Its T/C is 114 % of control.

With `CS(=O)(=O)OCC(O)C(O)C(O)C(O)COS(C)(=O)=O` (configuration not stated) as the compound, how does the T/C [2] read?
Its T/C is 107 % of control.

What about the T/C [3] of the same compound?
Its T/C is 103 % of control and 100 % of control.

And the T/C [4]?
Its T/C is 107 % of control.

What about the T/C [5] of the same compound?
Its T/C is 107 % of control and 121 % of control.

With `C[C@]12C=CC(=O)C=C1CC[C@@H]1[C@@H]2CC[C@]2(C)OC(=O)CC[C@@H]12` as the compound, how does the T/C (endpoint: mean survival time, dose: 12.5 mg/kg/injection, schedule: Q01DX010 (sc), vehicle: steriod suspending solution) read?
The T/C was 107 % of control.

What about the T/C (endpoint: mean survival time, dose: 25.0 mg/kg/injection, schedule: Q01DX010 (sc), vehicle: steriod suspending solution) of the same compound?
The T/C was 107 % of control.

What about the T/C (endpoint: mean survival time, dose: 50.0 mg/kg/injection, schedule: Q01DX010 (sc), vehicle: steriod suspending solution) of the same compound?
Its T/C is 107 % of control.

And the T/C (endpoint: mean survival time, dose: 100.0 mg/kg/injection, schedule: Q01DX010 (sc), vehicle: steriod suspending solution)?
The T/C was 100 % of control.

What does the source list for `Cc1ccccn1`?
T/C (endpoint: mean survival time, dose: 62.5 mg/kg/injection, schedule: Q01DX010 (ip), vehicle: saline): 96 % of control; T/C (endpoint: mean survival time, dose: 125.0 mg/kg/injection, schedule: Q01DX010 (ip), vehicle: saline): 100 % of control; T/C (endpoint: mean survival time, dose: 250.0 mg/kg/injection, schedule: Q01DX010 (ip), vehicle: saline): 96 % of control

`CC[C@]12C=CCN3CC[C@@]4(c5ccc(OC)cc5N(C)[C@H]4[C@@](O)(C(=O)OC)[C@@H]1OC(C)=O)[C@@H]32` was tested. Which T/C [1] did it give?
Its T/C is 93 % of control.

What about the T/C (endpoint: mean survival time, dose: 15.0 mg/kg/injection, schedule: Q01DX010 (ip), vehicle: saline) of the same compound?
Its T/C is 93 % of control.

And the T/C (endpoint: mean survival time, dose: 30.0 mg/kg/injection, schedule: Q01DX010 (ip), vehicle: saline)?
Its T/C is 96 % of control.

What about the T/C (endpoint: mean survival time, dose: 60.0 mg/kg/injection, schedule: Q01DX010 (ip), vehicle: saline) of the same compound?
Its T/C is 86 % of control.

Which T/C (endpoint: mean survival time, dose: 1.56 mg/kg/injection, schedule: Q01DX010 (ip), vehicle: saline) does the source give for `NCCCCCCNCCCCCCN` here?
Its T/C is 100 % of control.

What about the T/C (endpoint: mean survival time, dose: 3.13 mg/kg/injection, schedule: Q01DX010 (ip), vehicle: saline) of the same compound?
The T/C was 100 % of control.

And the T/C (endpoint: mean survival time, dose: 6.25 mg/kg/injection, schedule: Q01DX010 (ip), vehicle: saline)?
Its T/C is 100 % of control.

What about the T/C [6] of the same compound?
Its T/C is 92 % of control and 100 % of control.

What does the source list for `COc1ccc2c(c1O)-c1c(OC)c(OC)cc3c1[C@H](C2)[N+](C)(C)CC3`?
T/C (endpoint: mean survival time, dose: 1.25 mg/kg/injection, schedule: Q01DX010 (ip), vehicle: saline): 96 % of control; T/C (endpoint: mean survival time, dose: 2.5 mg/kg/injection, schedule: Q01DX010 (ip), vehicle: saline): 103 % of control; T/C (endpoint: mean survival time, dose: 5.0 mg/kg/injection, schedule: Q01DX010 (ip), vehicle: saline): 103 % of control; T/C (endpoint: mean survival time, dose: 10.0 mg/kg/injection, schedule: Q01DX010 (ip), vehicle: saline): 100 % of control

With `OCn1cccn1` as the compound, how does the T/C (endpoint: mean survival time, dose: 100.0 mg/kg/injection, schedule: Q01DX010 (ip), vehicle: water) read?
The T/C was 124 % of control.

And the T/C (endpoint: mean survival time, dose: 125.0 mg/kg/injection, schedule: Q01DX010 (ip), vehicle: water)?
Its T/C is 121 % of control.

What about the T/C (endpoint: mean survival time, dose: 150.0 mg/kg/injection, schedule: Q01DX010 (ip), vehicle: water) of the same compound?
Its T/C is 118 % of control.

What about the T/C (endpoint: mean survival time, dose: 200.0 mg/kg/injection, schedule: Q01DX010 (ip), vehicle: water) of the same compound?
The T/C was 86 % of control.

What does the source list for `CCC(=O)O[C@H]1CC[C@H]2[C@@H]3CCC4=CC(=O)CC[C@]4(C)[C@H]3CC[C@]12C`?
T/C (endpoint: mean survival time, dose: 62.5 mg/kg/injection, schedule: Q01DX010 (sc), vehicle: steriod suspending solution): 96 % of control; T/C (endpoint: mean survival time, dose: 125.0 mg/kg/injection, schedule: Q01DX010 (sc), vehicle: steriod suspending solution): 100 % of control; T/C (endpoint: mean survival time, dose: 250.0 mg/kg/injection, schedule: Q01DX010 (sc), vehicle: steriod suspending solution): 100 % of control; T/C (endpoint: mean survival time, dose: 500.0 mg/kg/injection, schedule: Q01DX010 (sc), vehicle: steriod suspending solution): 100 % of control

Which results are given for `O=C(NCCCCCCNC(=O)OCc1ccccc1)OCc1ccccc1`?
T/C [3]: 100 % of control; T/C [4]: 96 % of control; T/C [5]: 92 % of control; T/C (endpoint: mean survival time, dose: 400.0 mg/kg/injection, schedule: Q01DX010 (ip), vehicle: saline): 100 % of control

For `C[C@]12CCC(=O)C=C1CC[C@@H]1[C@@H]2[C@@H](O)C[C@@]2(C)[C@H]1CC[C@]2(O)C(=O)CO`, which T/C (endpoint: mean survival time, dose: 10.0 mg/kg/injection, schedule: Q01DX005 (sc), vehicle: steriod suspending solution) is on record?
The T/C was 110 % of control (2×) and 118 % of control.

What about the T/C (endpoint: mean survival time, dose: 50.0 mg/kg/injection, schedule: Q01DX005 (sc), vehicle: steriod suspending solution) of the same compound?
Its T/C is 104 % of control (2×) and 110 % of control.

What about the T/C (endpoint: mean survival time, dose: 100.0 mg/kg/injection, schedule: Q01DX005 (sc), vehicle: steriod suspending solution) of the same compound?
Its T/C is 90 % of control and 95 % of control.

And the T/C (endpoint: mean survival time, dose: 200.0 mg/kg/injection, schedule: Q01DX005 (sc), vehicle: steriod suspending solution)?
The T/C was 87 % of control and 89 % of control.

And the T/C (endpoint: mean survival time, dose: 250.0 mg/kg/injection, schedule: Q01DX005 (sc), vehicle: steriod suspending solution)?
The T/C was 93 % of control.

How did the T/C [6] turn out when `CC(C)=CCN=C(N)N` was run?
Its T/C is 103 % of control.

And the T/C [2]?
Its T/C is 106 % of control.
